We go through six molecules from patent US4031244A, “Pharmaceutical compositions containing a 1-(2,6-dimethyl-phenoxy)-2-amino-alkane and method of use” (priority 1966, dated 1977).

A short description of one series: in vivo. As to conditions: po, mouse. The source says:
(§1) The anticonvulsive activity of the compounds of the formula I and their non-toxic acid addition salts, as well as of certain isomers and homologs described in the prior art, was as certained by the electroshock method of Tooman et al, J. Neurophysiol.

Series [1] can be described thus: Anticonvulsive activity by the electroshock method of Tooman et al. To be noted: in vivo; mouse; LD50 / ED50; read-out: Therapeutic ratio LD50 ED50. Type of series: in vivo, mouse.
Source text: as §1

A further series concerns mouse. Described as above. As to conditions: Mus musculus, read-out: Anticonvulsive ED50. In kind it is in vivo.
Source text: as §1

The subject of series [2] is warmblooded animals, such as rats and mice. Description: Pharmacodynamic properties (anticonvulsive, antiarrhythmic, sedative side effects) in warm-blooded animals. In kind it is in vivo. To be noted: specific compounds.

Molecules are shown by their SMILES.

One may read the LD50 as the dose at which mortality reaches 50%. The low end stands for a more toxic substance, the high end for a less toxic substance. By ED50 is commonly meant the midpoint of the dose-response relation. In “in vivo”, `CNCCOc1c(C)cccc1C` [B, n-methyl-2-(2',6'-xylyloxy)-ethylamine] gave an LD50 of 216 mg/kg. In series [1], the selectivity ratio stood at 2.7. In addition, in the series on mouse, the median effective dose (ED50) was 80 mg/kg.
The matching figures for `Cc1cccc(C)c1OCCCN` [D, 3-(2',6'-xylyloxy)-propylamine]: 580 mg/kg, 2.7 and 216 mg/kg.
Take `Cc1cccc(C)c1OCC(C)N.Cl` (stereo not shown) [Example 1, 1-(2',6'-dimethyl-phenoxy)-2-amino-propane hydrochloride]: the effectiveness as anticonvulsives result in series [2] is recorded as “especially effective”.
In the case of `CCCC(N)COc1c(C)cccc1C` (stereo not shown) [1-(2',6'-dimethyl-phenoxy)-2-amino-pentane], in series [2], the effectiveness as anticonvulsives result was “especially effective”.
Take `Cc1cccc(C)c1OCC(C)N` (stereo not shown) [A, 1-(2',6'-dimethyl-phenoxy)-2-amino-propane]: the ED50 in the series with mouse stood at 23 mg/kg. The effectiveness as anticonvulsives entry in series [2] is given as “especially effective”.
Consider `Cc1cccc(C)c1OCCN` [C, 2-(2',6'-xylyloxy)-ethylamine], for which, in “in vivo”, the LD50 came out at 740 mg/kg. In addition, the selectivity ratio in series [1] came out at 6.4. The ED50 with mouse was 115 mg/kg.
